Reference: the supplement of paper PMC12420376

What was measured:
KURAMOCHI = experiment: drug sensitivity score (DSS2) on cancer cell count; higher = more sensitive; extreme values may be limits of the assay; conditions: 72 h
Procedure, shortened: (§1)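 Screen quality was checked by Z', and a drug sensitivity score was derived in Breeze from logistic fits of the cancer cell counts. These counts were obtained by imaging at 10× (4 fields) after fixing and immunostaining for CK8/18 with Hoechst. Before that, ovarian cancer cells, alone or in 1:1 direct co-culture with lung or skin fibroblasts, had been treated for 72 h on 384-well plates acoustically pre-spotted with 528 approved and investigational compounds at 5 concentrations.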

OVCAR8 = experiment: as above; conditions: 72 h
Procedure, shortened: as §1

[1] = co-cultured fibroblast: BJHTERT
[2] = co-cultured fibroblast: none (monoculture)

SMILES	drug sensitivity score (KURAMOCHI; [1]) [DSS]	drug sensitivity score (KURAMOCHI; co-cultured fibroblast: WI38) [DSS]	drug sensitivity score (KURAMOCHI; [2]) [DSS]	drug sensitivity score (OVCAR8; [1]) [DSS]	drug sensitivity score (OVCAR8; co-cultured fibroblast: WI38) [DSS]	drug sensitivity score (OVCAR8; [2]) [DSS]
COc1cc([C@@H]2c3cc4c(cc3[C@@H](O[C@@H]3O[C@@H]5CO[C@@H](C)O[C@H]5[C@H](O)[C@H]3O)[C@H]3COC(=O)[C@H]23)OCO4)cc(OC)c1O [Etoposide]	11.7	13.8	16.1	11.8	13.1	13.9
CC[C@@H]1C(=O)OC[C@@H]1Cc1cncn1C [Pilocarpine]	0	0	0	0	19.4	0
CC(C)c1c(C(=O)Nc2ccccc2)c(-c2ccccc2)c(-c2ccc(F)cc2)n1CC[C@@H](O)C[C@@H](O)CC(=O)O [Atorvastatin]	3.1	2.1	1.9	4	11.7	6
COc1cc(N2CCC(N3CCN(C)CC3)CC2)ccc1Nc1ncc(Cl)c(Nc2ccccc2P(C)(C)=O)n1 [Brigatinib]	0.1	0	0	4.3	7.9	2.2
CCn1cc(-c2ccnc3[nH]c(-c4cccc(CN(C)C)c4)cc23)c(-c2ccc(NC(=O)N(C)C)cc2)n1	13.7	15.5	14.2	12.3	4.4	10
CCn1c(C(=O)N(C2CC2)C2CC2)cc2c3c(ncn3C)c(Nc3cc(C)n(C)n3)nc21	3	1.5	0	0	1.1	1.3
CC(C)(C)c1cnc(CSc2cnc(NC(=O)C3CCNCC3)s2)o1 [SNS-032]	21.1	18.1	25.5	28.3	21	24.3
CO[C@H]1C[C@@H]2CC[C@@H](C)[C@@](O)(O2)C(=O)C(=O)N2CCCC[C@H]2C(=O)O[C@H]([C@H](C)C[C@@H]2CC[C@@H](OCCO)[C@H](OC)C2)CC(=O)[C@H](C)/C=C(\C)[C@@H](O)[C@@H](OC)C(=O)[C@H](C)C[C@H](C)/C=C/C=C/C=C/1C [Everolimus]	5.6	5.6	0	8.4	0	2.2
COc1cc2c(NC3CCN(C(C)C)CC3)nc(N3CCC(F)(F)CC3)nc2cc1OCCCN1CCCC1 [UNC0642]	1.5	0.7	0.1	8	0	2.2
CN(CC(=O)N(Cc1ccc(C2CCCCC2)cc1)c1ccc(C(=O)O)cc1)S(=O)(=O)c1c(F)c(F)c(F)c(F)c1F [SH-4-54]	8.5	7.8	12	0	6	7.3
CCCS(=O)(=O)Nc1ccc(F)c(C(=O)c2c[nH]c3ncc(-c4ccc(Cl)cc4)cc23)c1F [Vemurafenib]	0	0	0.8	0	1.1	1.3
NC(=O)/C(=C/n1cnc(-c2cc(C(F)(F)F)cc(C(F)(F)F)c2)n1)c1cncnc1 [Eltanexor]	20	20.8	26.5	26.7	24.4	26.8
Cn1ncc(Cl)c1-c1cc(C(=O)N[C@H](CN)Cc2ccc(F)c(F)c2)oc1Cl [Uprosertib]	0.5	4.4	2	0.6	0	0.1
O=C(NC1CCNCC1)c1n[nH]cc1NC(=O)c1c(Cl)cccc1Cl [AT7519]	17.3	18.8	19.6	21.6	17.5	19.9
COc1cc(Nc2ncc(F)c(Nc3ccc4c(n3)N(COP(=O)(O)O)C(=O)C(C)(C)O4)n2)cc(OC)c1OC [Fostamatinib]	0	2	0.3	0	0	0
COc1nc(N)nc2c1ncn2[C@@H]1O[C@H](CO)[C@@H](O)[C@@H]1O [Nelarabine]	0	0	0	1	3.4	0.3
CNc1nc(Nc2cn(C(C)(C)C#N)nc2C)ncc1C(F)(F)F [GNE-0877]	0	0	0	0	1.8	0
CCn1c(=O)c(-c2ccc(Cl)cc2Cl)cc2cnc(Nc3ccc(N4CCNCC4)c(F)c3)nc21 [FRAX486]	9.7	4.9	9.2	5.8	9.8	13.1
CO[C@H]1C[C@@H]2CC[C@@H](C)[C@@](O)(O2)C(=O)C(=O)N2CCCC[C@H]2C(=O)O[C@H]([C@H](C)C[C@@H]2CC[C@@H](O)[C@H](OC)C2)CC(=O)[C@H](C)/C=C(\C)[C@@H](O)[C@@H](OC)C(=O)[C@H](C)C[C@H](C)/C=C/C=C/C=C/1C [Sirolimus]	4.2	5	7.1	4.5	0	9.2

SMILES	drug sensitivity score (KURAMOCHI; [1]) [DSS]	drug sensitivity score (KURAMOCHI; co-cultured fibroblast: WI38) [DSS]	drug sensitivity score (KURAMOCHI; [2]) [DSS]	drug sensitivity score (OVCAR8; [1]) [DSS]	drug sensitivity score (OVCAR8; co-cultured fibroblast: WI38) [DSS]	drug sensitivity score (OVCAR8; [2]) [DSS]
O=C1c2c(O)ccc(O)c2C(=O)c2c(NCCNCCO)ccc(NCCNCCO)c21 [Mitoxantrone]	17.1	13.3	23.6	20.4	17	18.1
CN[C@@H](C)C(=O)N[C@H]1CN(C(=O)CC(C)C)CC[C@H]2CC[C@@H](C(=O)NC(c3ccccc3)c3ccccc3)N2C1=O [AT-406]	0	0	0	10	9.9	9.7
CN(C)C[C@@H]1CCn2cc(c3ccccc32)C2=C(C(=O)NC2=O)c2cn(c3ccccc23)CCO1 [Ruboxistaurin]	8.7	6.5	14.9	5.5	3.8	6.9
COc1cccc(OCCCN)c1-c1cc(Nc2cnc(C#N)cn2)n[nH]1 [Prexasertib]	25.7	23.7	30.7	35	33.7	29.8
CN1CCN(c2ccc(C(=O)Nc3n[nH]c4ccc(Cc5cc(F)cc(F)c5)cc34)c(NC3CCOCC3)c2)CC1 [Entrectinib]	2.1	0.3	1.4	0	4	0
Cc1nc2cccc(N)c2c(=O)n1C1CCC(=O)NC1=O (configuration not stated) [CC122]	0	0	0	0	0	0
C[C@@H]1C=C2C(=O)O[C@@H]3CC[C@H](C1)[C@]23O [Galiellalactone]	6.9	8.2	3.5	0	3.9	0
FC(F)(F)c1ccc(/C=C/c2nc(COc3ccc(CCCCn4ccnn4)cc3)co2)cc1 [Mubritinib]	5.6	0	0	16.9	0	5.5
Cc1nc(C(=O)NCC(=O)O)c(O)c2ccc(Oc3ccccc3)cc12 [Roxadustat]	3	0	0	0	0	0
CNS(=O)(=O)Nc1nccc(Cc2c(C)c3ccc(Oc4ncccn4)cc3oc2=O)c1F	0	0	4.3	0	5.7	0.2
Cc1[nH]nc(C(F)(F)F)c1Cc1sc2c(c1C(=O)N1C[C@](C)(O)CO1)c(=O)n(C)c(=O)n2C(C)C [AZD3965]	0	1.7	0	0	0	0
CC#CC(=O)N1CC[C@@H](n2c(=O)n(-c3ccc(Oc4ccccc4)cc3)c3c(N)ncnc32)C1 [Tirabrutinib]	1.4	0	0	0	0	0
C=CC(=O)N1CCC(Oc2cc3c(Nc4ccc(Cl)c(Cl)c4F)ncnc3cc2OC)CC1 [Poziotinib]	4.4	7.9	3	4	0.2	0.3
Nc1nc(F)nc2c1ncn2[C@@H]1O[C@H](CO)[C@@H](O)[C@@H]1O [Fludarabine]	0.3	4.5	0	8	8.5	13.4
COC(=O)N[C@@H](C)CNc1nccc(-c2cn(C(C)C)nc2-c2cc(Cl)cc(NS(C)(=O)=O)c2F)n1 [Encorafenib]	0	0	0	0	0	0.1
C1=N/C2=N/c3ccc(OCCN4CCCC4)c(c3)COC/C=C/COCc3cccc(c3)C(=C1)N2 [Pacritinib]	8.2	8.6	4.4	9.5	5.6	7.7
N.N.[Cl][Pt][Cl] [Cisplatin]	1.6	6.5	4.7	7.2	9.4	8.5
O=C1CCc2c(Oc3ccc4c(c3)[C@@H]3[C@H](O4)[C@H]3c3nc4cc(C(F)(F)F)ccc4[nH]3)ccnc2N1 [BGB-283]	6.9	5.3	4.7	3.7	13.4	5.2
